How the values were obtained:
[1] = test system: Murine Lewis Lung cells; settings: BDF1 mice; intravenously on Day 1
Procedure: Murine Lewis Lung cells are intravenously injected to BDF1 mice. Mean survival as well as body weight change and tumor free survivors on Day 72 are endpoints of the study. […] Treatment is administered once daily intraperitoneally on Days 1-4 and 7-11.

[2] = test system: pancreatic cancer; assay: Survival of pancreatic cancer patients receiving gemcitabine monotherapy (FIG. 8); format: in vivo, human; settings: hypothetical plot
Procedure: Patients suffering from pancreatic cancer are administered gemcitabine monotherapy. Post mortem studies of the patients' tumors determine the levels of hENT1 expression in the tumors. FIG. 8 depicts a Kaplan-Meier plot of survival for patients receiving the gemcitabine monotherapy Patients with high hENT1 expression (dotted line) outperform those with areas of hENT1-low tumor.

[3] = test system: human colon cancer Co6044; assay: Antitumor activity in human colon xenograft Co6044 (intraperitoneal); format: in vivo; settings: NCR female mice; intraperitoneally every third day five times; gemcitabine 120 mg/kg, gemcitabine-5′-elaidic acid ester 40 mg/kg
Procedure: (§1) Fragments of human colon cancers Co5776 and Co6044 are implanted subcutaneously in NCR female mice (7-8 mice/group). Gemcitabine (120 mg/kg) and gemcitabine-5′-elaidic acid ester (40 mg/kg) are administered intraperitoneally, every third day for five times.

[4] = test system: CCRF-CEM human leukemia cell line; assay: Triphosphate accumulation and retention in CCRF-CEM cells; format: cell-based
Excerpt: Drugs: Gemcitabine-5′-elaidate was provided by Clavis Pharma (Oslo, Norway), tetra hydro uridine (THU) was from Calbiochem (Merck, Darmstadt, Germany), dipyridamole and ara-C were from Sigma-Aldrich (St. Louis, Mo., USA) and dFdC was from Eli-Lilly (Indianapolis, Ind., USA). The radioactively labeled drugs were obtained from Moravek (Brea, Calif., USA); the drugs were labeled with tritium on the 5-C site of the base. A mix of radioactive and non-radioactive compounds was made for exposure of cells; dFdC and CP-4126 were used at a final concentration of 8.9 μM and a specific activity of 586 and 391 mCi/mmol, respectively.
Cell lines: For the experiments the CCRF-CEM human leukemia cell line and its dCK negative variant (CEM/dCK−) were used. The cell lines were cultured in RPMI medium (BioWhittaker, Verviers, Belgium) supplemented with 10% fetal calf serum (PAA laboratories, Pasching, Austria) and HEPES buffer (BioWhittaker). Of the nucleoside influx transporters, the CEM cell line only expresses the equilibrative nucleoside transporter (hENT) and not the concentrative nucleoside transporter (hCNT). Belt et al. Adv. Enzyme Regul., 1993, 33, 235-52. Dipyridamole (DP) was used to inhibit the influx of the drugs by hENT. In order to get a clean picture, THU was also added to inhibit deamination of ara-C and dFdC.
Triphosphate accumulation: Cells were treated with 1 and 10 μM of dFdC, while for the lipophilic analogs 10 and 100 μM was used. The cells were incubated for 60 minutes and retention of the triphosphates was investigated after 60 and 120 minutes incubation in drug-free medium. Dipyridamole was added to inhibit drug influx by the hENT transporter. After incubation the cell pellet was resuspended in ice-cold PBS and incubated for 20 minutes at 4° C. with 40% trichloroacetic acid. After centrifugation (10,000 g, 10 min, 4° C.) the supernatant was treated with a 2-fold excess of trioctylamine/1,1,2-trichlorotrifluorethane (1:4) and spun down (10,000 g, 1 min) and the aqueous phase was stored at −20° C. until analysis by HPLC on a Whatman Partisphere SAX column (GE healthcare, Chalfont St. Giles, UK) using gradient (dFdC-TP) elution as described earlier. Noordhuis et al., Leuk. Res., 1996, 20, 127-34; Ruiz van Haperen, et al., Biochem. Pharmacol., 1994, 48, 1327-39.

[5] = test system: Co-26 murine colon cancer cells; assay: Antitumor effect in Co-26 liver metastasis model; format: in vivo; settings: single dose
Procedure: Antitumor effect of single dose of gemcitabine-5′-elaidic acid ester or gemcitabine is tested in Balb/C female mice injected with Co-26 murine colon cancer cells in the spleen (a liver metastasis model). […] The activity of gemcitabine is similar.

[6] = test system: xenograft mouse models; assay: Correlation of hENT1 mRNA levels and sensitivity to gemcitabine in xenograft mouse models (FIG. 6); format: in vivo; settings: higher expression level of hENT1 mRNA
Excerpt: FIG. 6 depicts the correlation of hENT1 mRNA levels and sensitivity to gemcitabine in xenograft mouse models. There are many nucleoside transporters and each may move nucleoside analog drugs across the membrane with unique kinetics. A cancer cell which has lower levels nucleoside transporters will be less efficient at transporting these drugs into the cells, reducing the efficacy of the drug. For example a tumor that has low levels of hENT1 is less sensitive to treatment with gemcitabine. FIG. 6 depicts the correlation of hENT1 mRNA levels and sensitivity to gemcitabine in xenograft mouse models. In some aspects low expression of hENT1 on pancreatic tumor cells linked to poor survival after gemcitabine therapy. In addition, hENT1 deficient tumor cells are resistant to pyrimidine nucleoside analogs in vitro. For example, hENT1 mRNA levels are co-related to the sensitivity to gemcitabine in xenograft mouse models.

[7] = test system: human colon cancer Co5776; assay: Antitumor activity in human colon xenograft Co5776; format: in vivo; settings: NCR female mice; intraperitoneally every third day five times; gemcitabine 120 mg/kg, gemcitabine-5′-elaidic acid ester 40 mg/kg
Procedure: as §1
NCr female mice implanted subcutaneously with human colon carcinoma fragments, Co5776, are treated intraperitoneally. Two different schedules of gemcitabine-5′-elaidic acid ester are administered, once weekly times 2 (Days 11 and 18), and every third day times 5 (Days 11, 14, 17, 20, and 23). Antitumor activity of gemcitabine-5′-elaidic acid ester is similar for 150 mg/kg once weekly, administered twice or 40 mg/kg every third day administered five times.

[8] = test system: CEM cells; assay: Intracellular dFdCTP level in CEM cells with or without dipyridamole (HPLC); format: cell-based, human; settings: 10 μM
Procedure: hENT1 can inhibited in vitro by various agents including dipyridamole, NBMPR, and NBI. In order to test whether gemcitabine-5′-elaidate entry into the cells is independent of a nucleoside transporter such as hENT1, dipyridamole is used to block hENT1. The intracellular level of dFdCTP is determined in CEM cells after 60 minutes exposure to either dFdC or gemcitabine-5′-elaidate, with or without the addition of dipyridamole (DP). The compounds are administered at 10 μM, and the triphosphates are determined using HPLC. Deamination is blocked using tetrahydrouridine.

Structure (SMILES) | antitumor activity [1] | toxicity [1] | survival (Kaplan-Meier), high hENT1 vs hENT1-low tumor [2] | antitumor effect [3] | retention of dFdC-TP concentration after washing away the drugs ([4]; 60 and 120 minutes in drug-free medium) | triphosphates formed after 60 minutes incubation ([4]; dFdC 1 and 10 μM, lipophilic analog 10 and 100 μM) | effect of dipyridamole on dFdC-TP accumulation ([4]; hENT inhibited by dipyridamole) | activity compared with gemcitabine [5] | response in relation to hENT1 mRNA expression level [6] | antitumor effect [7] | intracellular triphosphate (dFdCTP) level with DP ([8]; 60 minutes exposure, with dipyridamole, tetrahydrouridine present) | level of triphosphate over time in the absence of DP ([8]; after exposure, without dipyridamole)
O=P1(N(CCCl)CCCl)NCCCO1 (stereo not drawn) [CTX, Cyclophosphamide] | highly active | non-toxic | – | – | – | – | – | – | – | – | – | –
Nc1ccn([C@@H]2O[C@H](CO)[C@@H](O)C2(F)F)c(=O)n1 [gemcitabine, 2′2′-difluorodeoxycytidine] | – | – | outperform | Significant antitumor effect | decreased after washing away the drugs | more triphosphates were formed | abolishing accumulation of dFdC-TP | similar | better response | Significant antitumor effect | below level of detection | decreases with time

From patent publication US20130005678A1, “Methods and Compositions for Treating or Ameliorating Cancer Using Gemcitabine-5'-Elaidate” (CLAVIS PHARMA ASA, priority 2010, published 2013)
